Measured values published in US7432397B2, “Imaging compounds” (Hammersmith Imanet Ltd., priority 2002, dated 2008).
Marks after values point to notes of the source that are not given here.

Assay: Biodistribution of radioactivity in rat tissues after intravenous injection
Type: in vivo
Conditions: i.v.; for Radioactivity in Plasma / Radioactivity in Whole blood: composite curve of 9 rats
Description: Sixteen adult male Sprague-Dawley rats (body weight 250-320 g: mean±SD=288±25 g) were used in 5 separate experiments. Each rat was injected with ˜13 MBq Compound 1, at a specific activity of […], via a previously catheterised tail vein. The associated stable compound was 0.5±0.2 nmol/kg. Discrete samples of arterial blood were collected from 9 of the rats via a previously catheterised tail artery.
Tissues were sampled post-mortem using an established protocol, as described in Hirani et al, Synapse 42:164-176 (2001). The radioactivity concentration data obtained at 12 times up to 90 min after radioligand injection were normalised for both amount injected and body weight, giving:—‘uptake units’=(cpm/g tissue)/(injected cpm/g body weight).

Q: Which “Radioactivity in Entorhinal cortex” value (10 min) does the source give for `CSc1cccc(N([11CH3])C(=N)Nc2cc(SC)ccc2Cl)c1` [Compound 1, (N-(2-chloro-5-(methylthio)phenyl)-N′-(3-methylthio)phenyl)-N′-[N-methyl-^11C]-methylguanidine] here?
A: 2.04 Uptake Units

Q: What about the “Radioactivity in Fat” value (10 min) of the same molecule?
A: 0.50 Uptake Units

Q: And the “Radioactivity in Heart (ventricle)” value (10 min)?
A: 2.20 Uptake Units

Q: And the “Radioactivity in Hippocampus” value (10 min)?
A: 1.81 Uptake Units

Q: What about the “Radioactivity in Hypothalamus” value (10 min) of the same molecule?
A: 2.13 Uptake Units

Q: And the “Radioactivity in Inferior collicull” value (10 min)?
A: 2.69 Uptake Units

Q: And the “Radioactivity in Kidney” value (10 min)?
A: 5.72 Uptake Units

Q: What about the “Radioactivity in Large intestine” value (10 min) of the same molecule?
A: 1.92 Uptake Units

Q: What about the “Radioactivity in Lge. intestine content” value (10 min) of the same molecule?
A: 0.17 Uptake Units

Q: What about the “Radioactivity in Liver” value (10 min) of the same molecule?
A: 4.38 Uptake Units

Q: What about the “Radioactivity in Lung” value (10 min) of the same molecule?
A: 35.3 Uptake Units

Q: What about the “Radioactivity in Medulla with Pons” value (10 min) of the same molecule?
A: 2.26 Uptake Units

Q: And the “Radioactivity in Olfactory bulbs” value (10 min)?
A: 1.91 Uptake Units

Q: And the “Radioactivity in Olfactory tubercles” value (10 min)?
A: 2.14 Uptake Units

Q: What about the “Radioactivity in Prefrontal cortex” value (10 min) of the same molecule?
A: 2.52 Uptake Units

Q: And the “Radioactivity in Skeletal muscle” value (10 min)?
A: 1.05 Uptake Units

Q: And the “Radioactivity in Skin” value (10 min)?
A: 0.70 Uptake Units

Q: And the “Radioactivity in Sm. intestine content” value (10 min)?
A: 5.31 Uptake Units

Q: And the “Radioactivity in Small intestine” value (10 min)?
A: 2.49 Uptake Units

Q: And the “Radioactivity in Somatosensory cortex” value (10 min)?
A: 2.49 Uptake Units

Q: And the “Radioactivity in Spleen” value (10 min)?
A: 4.31 Uptake Units

Q: What about the “Radioactivity in Stomach” value (10 min) of the same molecule?
A: 0.82 Uptake Units

Q: And the “Radioactivity in Striata” value (10 min)?
A: 2.17 Uptake Units

Q: And the “Radioactivity in Superior collicull” value (10 min)?
A: 2.35 Uptake Units

Q: And the “Radioactivity in Testis” value (10 min)?
A: 0.66 Uptake Units

Q: And the “Radioactivity in Thalamus” value (10 min)?
A: 2.39 Uptake Units

Q: What about the “Radioactivity in Urine” value (10 min) of the same molecule?
A: 10.9 Uptake Units

Q: What about the “Radioactivity in Visual cortex” value (10 min) of the same molecule?
A: 2.80 Uptake Units

Q: What about the “Radioactivity in Plasma” value (10 min) of the same molecule?
A: 0.19 Uptake Units

Q: And the “Radioactivity in Whole blood” value (10 min)?
A: 0.21 Uptake Units

Q: What about the “Radioactivity in Cerebellum” value (15 min) of the same molecule?
A: 1.81 Uptake Units

Q: What about the “Radioactivity in Entorhinal cortex” value (15 min) of the same molecule?
A: 1.93 Uptake Units

Q: And the “Radioactivity in Fat” value (15 min)?
A: 0.75 Uptake Units

Q: And the “Radioactivity in Heart (ventricle)” value (15 min)?
A: 1.63 Uptake Units

Q: And the “Radioactivity in Hippocampus” value (15 min)?
A: 1.74 Uptake Units

Q: And the “Radioactivity in Hypothalamus” value (15 min)?
A: 1.85 Uptake Units

Q: And the “Radioactivity in Inferior collicull” value (15 min)?
A: 2.22 Uptake Units

Q: And the “Radioactivity in Kidney” value (15 min)?
A: 4.78 Uptake Units

Q: What about the “Radioactivity in Large intestine” value (15 min) of the same molecule?
A: 1.65 Uptake Units

Q: What about the “Radioactivity in Lge. intestine content” value (15 min) of the same molecule?
A: 0.03 Uptake Units

Q: And the “Radioactivity in Liver” value (15 min)?
A: 6.87 Uptake Units

Q: What about the “Radioactivity in Lung” value (15 min) of the same molecule?
A: 10.7 Uptake Units

Q: What about the “Radioactivity in Medulla with Pons” value (15 min) of the same molecule?
A: 1.92 Uptake Units

Q: What about the “Radioactivity in Olfactory bulbs” value (15 min) of the same molecule?
A: 1.72 Uptake Units

Q: And the “Radioactivity in Olfactory tubercles” value (15 min)?
A: 1.92 Uptake Units

Q: And the “Radioactivity in Prefrontal cortex” value (15 min)?
A: 2.32 Uptake Units

Q: What about the “Radioactivity in Skeletal muscle” value (15 min) of the same molecule?
A: 1.07 Uptake Units

Q: What about the “Radioactivity in Skin” value (15 min) of the same molecule?
A: 0.51 Uptake Units

Q: And the “Radioactivity in Sm. intestine content” value (15 min)?
A: 9.63 Uptake Units

Q: And the “Radioactivity in Small intestine” value (15 min)?
A: 2.79 Uptake Units

Q: And the “Radioactivity in Somatosensory cortex” value (15 min)?
A: 2.24 Uptake Units

Q: What about the “Radioactivity in Spleen” value (15 min) of the same molecule?
A: 4.46 Uptake Units

Q: And the “Radioactivity in Stomach” value (15 min)?
A: 2.07 Uptake Units

Q: What about the “Radioactivity in Striata” value (15 min) of the same molecule?
A: 1.92 Uptake Units

Q: What about the “Radioactivity in Superior collicull” value (15 min) of the same molecule?
A: 2.01 Uptake Units

Q: What about the “Radioactivity in Testis” value (15 min) of the same molecule?
A: 0.66 Uptake Units

Q: And the “Radioactivity in Thalamus” value (15 min)?
A: 2.21 Uptake Units

Q: What about the “Radioactivity in Urine” value (15 min) of the same molecule?
A: 22.0 Uptake Units

Q: And the “Radioactivity in Visual cortex” value (15 min)?
A: 2.28 Uptake Units

Q: And the “Radioactivity in Plasma” value (15 min)?
A: 0.17 Uptake Units

Q: And the “Radioactivity in Whole blood” value (15 min)?
A: 0.19 Uptake Units

Q: What about the “Radioactivity in Cerebellum” value (20 min) of the same molecule?
A: 1.45* Uptake Units

Q: And the “Radioactivity in Entorhinal cortex” value (20 min)?
A: 1.80 Uptake Units

Q: And the “Radioactivity in Fat” value (20 min)?
A: 0.40* Uptake Units

Q: What about the “Radioactivity in Heart (ventricle)” value (20 min) of the same molecule?
A: 1.10* Uptake Units

Q: What about the “Radioactivity in Hippocampus” value (20 min) of the same molecule?
A: 1.60 Uptake Units

Q: And the “Radioactivity in Hypothalamus” value (20 min)?
A: 1.67 Uptake Units

Q: What about the “Radioactivity in Inferior collicull” value (20 min) of the same molecule?
A: 1.97 Uptake Units

Q: And the “Radioactivity in Kidney” value (20 min)?
A: 3.19* Uptake Units

Q: And the “Radioactivity in Large intestine” value (20 min)?
A: 1.27* Uptake Units

Q: What about the “Radioactivity in Lge. intestine content” value (20 min) of the same molecule?
A: 0.28* Uptake Units

Q: And the “Radioactivity in Liver” value (20 min)?
A: 6.47* Uptake Units

Q: What about the “Radioactivity in Lung” value (20 min) of the same molecule?
A: 14.0* Uptake Units

Q: What about the “Radioactivity in Medulla with Pons” value (20 min) of the same molecule?
A: 1.68 Uptake Units

Q: What about the “Radioactivity in Olfactory bulbs” value (20 min) of the same molecule?
A: 1.46 Uptake Units

Q: And the “Radioactivity in Olfactory tubercles” value (20 min)?
A: 1.73 Uptake Units

Q: And the “Radioactivity in Prefrontal cortex” value (20 min)?
A: 1.94* Uptake Units

Q: And the “Radioactivity in Skeletal muscle” value (20 min)?
A: 0.96* Uptake Units

Q: And the “Radioactivity in Skin” value (20 min)?
A: 0.68* Uptake Units

Q: What about the “Radioactivity in Sm. intestine content” value (20 min) of the same molecule?
A: 6.08* Uptake Units

Q: What about the “Radioactivity in Small intestine” value (20 min) of the same molecule?
A: 2.16* Uptake Units

Q: What about the “Radioactivity in Somatosensory cortex” value (20 min) of the same molecule?
A: 2.03 Uptake Units

Q: What about the “Radioactivity in Spleen” value (20 min) of the same molecule?
A: 3.26* Uptake Units

Q: What about the “Radioactivity in Stomach” value (20 min) of the same molecule?
A: 0.67* Uptake Units

Q: And the “Radioactivity in Striata” value (20 min)?
A: 1.65* Uptake Units

Q: What about the “Radioactivity in Superior collicull” value (20 min) of the same molecule?
A: 1.64 Uptake Units

Q: What about the “Radioactivity in Testis” value (20 min) of the same molecule?
A: 0.73* Uptake Units

Q: And the “Radioactivity in Thalamus” value (20 min)?
A: 2.01 Uptake Units

Q: And the “Radioactivity in Urine” value (20 min)?
A: 10.7* Uptake Units

Q: And the “Radioactivity in Visual cortex” value (20 min)?
A: 2.07 Uptake Units

Q: What about the “Radioactivity in Plasma” value (20 min) of the same molecule?
A: 0.17 Uptake Units

Q: And the “Radioactivity in Whole blood” value (20 min)?
A: 0.18 Uptake Units

Q: What about the “Radioactivity in Cerebellum” value (30 min) of the same molecule?
A: 0.55 Uptake Units
